Measurements published in publication PMC5218480 (PLoS ONE, 2017).

Tested on: MV-4-11 cells
Experiment: Gene expression microarray analysis (Affymetrix PrimeView) and GSEA
Format: cell-based, human
Design: RFU PODN (11730768_x_at) / Fold change /veh PODN (11730768_x_at) / RFU LINC00158 (11744669_a_at) / Fold change /veh LINC00158 (11744669_a_at) / RFU DUSP10 (11751237_a_at) / Fold change /veh DUSP10 (11751237_a_at) / RFU ID3 (11757404_x_at) / Fold change /veh ID3 (11757404_x_at) / RFU PLEKHG5 (11737974_s_at) / Fold change /veh PLEKHG5 (11737974_s_at) / RFU LRRC4B (11730491_at) / Fold change /veh LRRC4B (11730491_at) / RFU GIMAP4 (11747438_a_at) / Fold change /veh GIMAP4 (11747438_a_at) / RFU KRT8 (11758183_x_at) / Fold change /veh KRT8 (11758183_x_at) / RFU CNN1 (11734310_a_at) / Fold change /veh CNN1 (11734310_a_at) / RFU VPS37D (11726825_at) / Fold change /veh VPS37D (11726825_at) / RFU C10orf10 (11716522_x_at) / Fold change /veh C10orf10 (11716522_x_at) / RFU KIR2DL2 /// KIR2DL4 /// KIR2DL5A /// KIR2DL5B /// KIR2DS1 /// KIR2DS2 /// KIR2DS3 /// KIR2DS4 /// KIR3DL3 /// KIR3DL3 /// KIR3DS1 (11738374_at) / Fold change /veh KIR2DL2 /// KIR2DL4 /// KIR2DL5A /// KIR2DL5B /// KIR2DS1 /// KIR2DS2 /// KIR2DS3 /// KIR2DS4 /// KIR3DL3 /// KIR3DL3 /// KIR3DS1 (11738374_at) / RFU C1QL1 (11718748_at) / Fold change /veh C1QL1 (11718748_at) / RFU TMPRSS4 (11747572_a_at) / Fold change /veh TMPRSS4 (11747572_a_at) / RFU HAMP (11756126_x_at) / Fold change /veh HAMP (11756126_x_at) / RFU RNFT2 (11725882_a_at) / Fold change /veh RNFT2 (11725882_a_at) / RFU NR4A2 (11747474_a_at) / Fold change /veh NR4A2 (11747474_a_at) / RFU ABCC12 (11746883_a_at) / Fold change /veh ABCC12 (11746883_a_at) / RFU TMEM136 (11760407_x_at) / Fold change /veh TMEM136 (11760407_x_at) / RFU CLDN22 /// WWC2 (11732394_at) / Fold change /veh CLDN22 /// WWC2 (11732394_at) / RFU HLA-DPB1 (11760878_x_at) / Fold change /veh HLA-DPB1 (11760878_x_at) / RFU SPINT1 (11716480_a_at) / Fold change /veh SPINT1 (11716480_a_at) / RFU GAP43 (11754022_s_at) / Fold change /veh GAP43 (11754022_s_at) / RFU A4GNT (11735810_at) / Fold change /veh A4GNT (11735810_at) / RFU PRB3 (11715151_x_at) / Fold change /veh PRB3 (11715151_x_at) / RFU TUBB4B (11761932_at) / Fold change /veh TUBB4B (11761932_at) / RFU CAPN14 (11732068_a_at) / Fold change /veh CAPN14 (11732068_a_at) / RFU TMCC2 (11721928_a_at) / Fold change /veh TMCC2 (11721928_a_at) / RFU IRGQ (11745062_a_at) / Fold change /veh IRGQ (11745062_a_at) / RFU FAM174B (11720279_a_at) / Fold change /veh FAM174B (11720279_a_at) / RFU TMPRSS4 (11748680_a_at) / Fold change /veh TMPRSS4 (11748680_a_at) / RFU FAM212B (11763350_a_at) / Fold change /veh FAM212B (11763350_a_at) / RFU PLEKHG5 (11743358_a_at) / Fold change /veh PLEKHG5 (11743358_a_at) / RFU ZSCAN30 (11745921_a_at) / Fold change /veh ZSCAN30 (11745921_a_at) / RFU CMKLR1 (11741424_a_at) / Fold change /veh CMKLR1 (11741424_a_at) / RFU LOC101060620 /// MAPK8IP1 (11723275_at) / Fold change /veh LOC101060620 /// MAPK8IP1 (11723275_at) / RFU SPTSSB (11747773_x_at) / Fold change /veh SPTSSB (11747773_x_at) / RFU PRSS12 (11739890_at) / Fold change /veh PRSS12 (11739890_at) / RFU BIN1 (11741810_x_at) / Fold change /veh BIN1 (11741810_x_at) / RFU WNT11 (11732464_a_at) / Fold change /veh WNT11 (11732464_a_at) / RFU C10orf10 (11716521_a_at) / Fold change /veh C10orf10 (11716521_a_at) / RFU C5orf56 (11738089_at) / Fold change /veh C5orf56 (11738089_at) / RFU CYB561 (11721691_x_at) / Fold change /veh CYB561 (11721691_x_at) / RFU ANKRD19P (11752326_a_at) / Fold change /veh ANKRD19P (11752326_a_at) / RFU OR2T12 /// OR2T33 /// OR2T8 (11738714_s_at) / Fold change /veh OR2T12 /// OR2T33 /// OR2T8 (11738714_s_at) / RFU VCAN (11748164_a_at) / Fold change /veh VCAN (11748164_a_at) / RFU JSRP1 (11732532_at) / Fold change /veh JSRP1 (11732532_at) / RFU KRTAP10-11 (11738290_x_at) / Fold change /veh KRTAP10-11 (11738290_x_at) / RFU MYO3A (11730013_a_at) / Fold change /veh MYO3A (11730013_a_at) / RFU EBF3 (11725865_a_at) / Fold change /veh EBF3 (11725865_a_at) / RFU CAMK2N1 (11719241_x_at) / Fold change /veh CAMK2N1 (11719241_x_at) / RFU C5orf56 (11738088_a_at) / Fold change /veh C5orf56 (11738088_a_at) / RFU OLFML3 (11715873_a_at) / Fold change /veh OLFML3 (11715873_a_at) / RFU LOC100653217 /// NTM (11731650_a_at) / Fold change /veh LOC100653217 /// NTM (11731650_a_at) / RFU MAPK11 (11762145_a_at) / Fold change /veh MAPK11 (11762145_a_at) / RFU FIZ1 (11724087_x_at) / Fold change /veh FIZ1 (11724087_x_at) / RFU OASL (11726364_x_at) / Fold change /veh OASL (11726364_x_at) / RFU SOX15 (11748057_x_at) / Fold change /veh SOX15 (11748057_x_at) / RFU CD79A (11719716_a_at) / Fold change /veh CD79A (11719716_a_at) / RFU HIST1H1D (11736915_at) / Fold change /veh HIST1H1D (11736915_at) / RFU CASKIN2 (11723855_a_at) / Fold change /veh CASKIN2 (11723855_a_at) / RFU LOC730098 (11760151_x_at) / Fold change /veh LOC730098 (11760151_x_at) / RFU OR4N2 (11742367_at) / Fold change /veh OR4N2 (11742367_at) / RFU PRRT2 (11749266_a_at) / Fold change /veh PRRT2 (11749266_a_at) / RFU SNX32 (11753110_a_at) / Fold change /veh SNX32 (11753110_a_at) / RFU CDHR5 (11726645_a_at) / Fold change /veh CDHR5 (11726645_a_at) / RFU RCAN1 (11760418_a_at) / Fold change /veh RCAN1 (11760418_a_at) / RFU FAM167A (11723789_a_at) / Fold change /veh FAM167A (11723789_a_at) / RFU FAM26E (11764081_at) / Fold change /veh FAM26E (11764081_at) / RFU ISYNA1 (11749810_s_at) / Fold change /veh ISYNA1 (11749810_s_at) / RFU ACY1 (11761880_at) / Fold change /veh ACY1 (11761880_at) / RFU 11764098_at / Fold change /veh 11764098_at / RFU SAMD14 (11745864_x_at) / Fold change /veh SAMD14 (11745864_x_at) / RFU NPB (11741838_a_at) / Fold change /veh NPB (11741838_a_at) / RFU TMPRSS6 (11731388_a_at) / Fold change /veh TMPRSS6 (11731388_a_at) / RFU KRTAP10-2 (11738614_at) / Fold change /veh KRTAP10-2 (11738614_at) / RFU ARHGAP8 /// PRR5-ARHGAP8 (11727945_x_at) / Fold change /veh ARHGAP8 /// PRR5-ARHGAP8 (11727945_x_at) / RFU KRTAP5-7 /// NADSYN1 (11734609_at) / Fold change /veh KRTAP5-7 /// NADSYN1 (11734609_at) / RFU RASL12 (11751679_a_at) / Fold change /veh RASL12 (11751679_a_at) / RFU CDKN2B (11736163_a_at) / Fold change /veh CDKN2B (11736163_a_at) / RFU PRF1 (11729649_at) / Fold change /veh PRF1 (11729649_at) / RFU, ZNF638 /// ZNF638-IT1 / Fold change vs veh, ZNF638 /// ZNF638-IT1 / RFU, PANK3 / Fold change vs veh, PANK3 / RFU, SH3YL1 / Fold change vs veh, SH3YL1 / RFU, ZEB2 / Fold change vs veh, ZEB2 / RFU, NRIP1 / Fold change vs veh, NRIP1 / RFU, PTTG1IP / Fold change vs veh, PTTG1IP / RFU, CAPN2 / Fold change vs veh, CAPN2 / RFU, MED14 / Fold change vs veh, MED14 / RFU, SNORA58 / Fold change vs veh, SNORA58 / RFU, C1orf63 / Fold change vs veh, C1orf63 / RFU, LRRFIP1 / Fold change vs veh, LRRFIP1 / RFU, NDUFAF7 / Fold change vs veh, NDUFAF7 / RFU, SLC12A2 / Fold change vs veh, SLC12A2 / RFU, IBTK / Fold change vs veh, IBTK / RFU, ESF1 / Fold change vs veh, ESF1 / Fold change vs veh, TMEM50B / RFU, TAOK1 / Fold change vs veh, TAOK1 / RFU, ACBD3 / Fold change vs veh, ACBD3 / RFU, TMA16 / Fold change vs veh, TMA16 / RFU, RWDD3 / Fold change vs veh, RWDD3 / RFU, BCAT1 / Fold change vs veh, BCAT1 / RFU, EDEM3 / Fold change vs veh, EDEM3 / RFU, TMEM33 / Fold change vs veh, TMEM33 / RFU, WDR75 / Fold change vs veh, WDR75 / RFU, AHCTF1 / Fold change vs veh, AHCTF1 / RFU, TFRC / Fold change vs veh, TFRC / RFU, ZDHHC17 / Fold change vs veh, ZDHHC17 / RFU, NOM1 / Fold change vs veh, NOM1 / RFU, ARL8B / Fold change vs veh, ARL8B / RFU, ZBTB11 / Fold change vs veh, ZBTB11 / RFU, TAMM41 / Fold change vs veh, TAMM41 / RFU, KIAA1704 /// LOC100996395 / Fold change vs veh, KIAA1704 /// LOC100996395 / RFU, ING1 / Fold change vs veh, ING1 / RFU, TRMT61B / Fold change vs veh, TRMT61B / RFU, FUBP3 / Fold change vs veh, FUBP3 / RFU, TP53 / Fold change vs veh, TP53 / RFU, TNKS2 / Fold change vs veh, TNKS2 / RFU, ZFP14 / Fold change vs veh, ZFP14 / RFU, ACTR2 / Fold change vs veh, ACTR2 / RFU, PPP3R1 / Fold change vs veh, PPP3R1 / RFU, PIK3R1 / Fold change vs veh, PIK3R1 / RFU, HNRNPA1 / Fold change vs veh, HNRNPA1 / RFU, RNF170 / Fold change vs veh, RNF170 / RFU, ZNF28 / Fold change vs veh, ZNF28 / RFU, RNGTT / Fold change vs veh, RNGTT / RFU, OGT / Fold change vs veh, OGT / RFU, BRD1 / Fold change vs veh, BRD1 / RFU, MARS / Fold change vs veh, MARS / RFU, ZNF655 / Fold change vs veh, ZNF655 / RFU, FAHD1 / Fold change vs veh, FAHD1 / RFU, BDP1 / Fold change vs veh, BDP1 / RFU, LRRCC1 / Fold change vs veh, LRRCC1 / RFU, ARID1A / Fold change vs veh, ARID1A / RFU, ZNF146 / Fold change vs veh, ZNF146 / RFU, ZNF330 / Fold change vs veh, ZNF330 / RFU, GPN3 / Fold change vs veh, GPN3 / RFU, C9orf123 / Fold change vs veh, C9orf123 / RFU, N4BP2L2 / Fold change vs veh, N4BP2L2 / RFU, ARFIP1 / Fold change vs veh, ARFIP1 / RFU, FAM179B / Fold change vs veh, FAM179B / RFU, BCL10 / Fold change vs veh, BCL10 / RFU, UHRF1BP1L / Fold change vs veh, UHRF1BP1L / RFU, BET1 / Fold change vs veh, BET1 / RFU, CNOT2 / Fold change vs veh, CNOT2 / RFU, ZNF268 / Fold change vs veh, ZNF268 / Fold change vs veh, ZNF507 / RFU, DGCR2 / Fold change vs veh, DGCR2 / RFU, WDSUB1 / Fold change vs veh, WDSUB1 / Fold change vs veh, HSP90B1 /// MIR3652 / RFU, ADSS / Fold change vs veh, ADSS / RFU, GK / Fold change vs veh, GK / RFU, ZNF148 / Fold change vs veh, ZNF148 / RFU, TAF9 / Fold change vs veh, TAF9 / RFU, SLC1A5 / Fold change vs veh, SLC1A5 / RFU, SLMO2 / Fold change vs veh, SLMO2 / RFU, ABCC4 / Fold change vs veh, ABCC4 / RFU, LOC101060439 /// RAP1B / Fold change vs veh, LOC101060439 /// RAP1B / RFU, RFX7 / Fold change vs veh, RFX7 / RFU, GTPBP10 / Fold change vs veh, GTPBP10 / RFU, CNEP1R1 / Fold change vs veh, CNEP1R1 / RFU, BIVM-ERCC5 /// ERCC5 / Fold change vs veh, BIVM-ERCC5 /// ERCC5 / RFU, ILF3 / Fold change vs veh, ILF3 / RFU 11762660_at / Fold change /veh 11762660_at / RFU VCAN (11757783_s_at) / Fold change /veh VCAN (11757783_s_at) / RFU DDX43 (11728927_at) / Fold change /veh DDX43 (11728927_at) / RFU KRT8 (11758188_x_at) / Fold change /veh KRT8 (11758188_x_at) / RFU NKD1 (11759106_at) / Fold change /veh NKD1 (11759106_at) / RFU SRD5A1 (11742802_a_at) / Fold change /veh SRD5A1 (11742802_a_at) / RFU TPSAB1 /// TPSB2 (11721975_s_at) / Fold change /veh TPSAB1 /// TPSB2 (11721975_s_at) / RFU GSTM3 (11746129_a_at) / Fold change /veh GSTM3 (11746129_a_at) / RFU IL23R (11737362_x_at) / Fold change /veh IL23R (11737362_x_at) / RFU TMEM51 (11727254_a_at) / Fold change /veh TMEM51 (11727254_a_at) / RFU PIWIL2 (11732686_x_at) / Fold change /veh PIWIL2 (11732686_x_at) / RFU ORM1 (11744905_x_at) / Fold change /veh ORM1 (11744905_x_at) / RFU CCDC152 (11743942_at) / Fold change /veh CCDC152 (11743942_at) / RFU ECM1 (11717891_a_at) / Fold change /veh ECM1 (11717891_a_at) / RFU IL23R (11748794_a_at) / Fold change /veh IL23R (11748794_a_at) / RFU TNFAIP8L3 (11732012_x_at) / Fold change /veh TNFAIP8L3 (11732012_x_at) / RFU MBOAT4 (11741988_at) / Fold change /veh MBOAT4 (11741988_at) / RFU 11764193_at / Fold change /veh 11764193_at / RFU TMEM53 (11763286_at) / Fold change /veh TMEM53 (11763286_at) / RFU MAGEB2 (11727129_at) / Fold change /veh MAGEB2 (11727129_at) / RFU TMEM200A (11744735_a_at) / Fold change /veh TMEM200A (11744735_a_at) / RFU CCDC152 (11751479_a_at) / Fold change /veh CCDC152 (11751479_a_at) / RFU FAM211A (11726209_a_at) / Fold change /veh FAM211A (11726209_a_at) / RFU RGS16 (11746705_a_at) / Fold change /veh RGS16 (11746705_a_at) / RFU VCAN (11755009_s_at) / Fold change /veh VCAN (11755009_s_at) / RFU RHOB (11743442_s_at) / Fold change /veh RHOB (11743442_s_at) / RFU RGS16 (11720943_a_at) / Fold change /veh RGS16 (11720943_a_at) / RFU RGS16 (11720944_at) / Fold change /veh RGS16 (11720944_at) / RFU, VPS4B / Fold change vs veh, VPS4B / RFU, CREB1 / Fold change vs veh, CREB1 / RFU, DNAJC13 / Fold change vs veh, DNAJC13 / RFU, GNAQ / Fold change vs veh, GNAQ / RFU, CDK5R1 / Fold change vs veh, CDK5R1 / RFU, ZRANB3 / Fold change vs veh, ZRANB3 / RFU, CUL4A / Fold change vs veh, CUL4A / RFU, CCNY / Fold change vs veh, CCNY / RFU, UFL1 / Fold change vs veh, UFL1 / RFU, COG3 / Fold change vs veh, COG3 / RFU, DIAPH2 / Fold change vs veh, DIAPH2 / RFU, SKA2 / Fold change vs veh, SKA2 / RFU, AFF3 / Fold change vs veh, AFF3 / RFU, LMF1 / Fold change vs veh, LMF1 / RFU, IPO11 / Fold change vs veh, IPO11 / RFU, DFFB / Fold change vs veh, DFFB / RFU, FOXP1 / Fold change vs veh, FOXP1 / RFU, CARD8 / Fold change vs veh, CARD8 / RFU, STRN3 / Fold change vs veh, STRN3 / RFU, ADK / Fold change vs veh, ADK / RFU, RASSF2 / Fold change vs veh, RASSF2 / RFU, WIPF1 / Fold change vs veh, WIPF1 / RFU, LARP1B / Fold change vs veh, LARP1B / RFU, RASA1 / Fold change vs veh, RASA1 / RFU, RB1 / Fold change vs veh, RB1 / RFU, PPFIA1 / Fold change vs veh, PPFIA1 / RFU, MAT2A / Fold change vs veh, MAT2A / RFU, CCT5 / Fold change vs veh, CCT5 / RFU, WDR92 / Fold change vs veh, WDR92 / RFU, CUX1 / Fold change vs veh, CUX1 / RFU, TTC7A / Fold change vs veh, TTC7A / RFU, TMEM135 / Fold change vs veh, TMEM135 / RFU, DEPTOR / Fold change vs veh, DEPTOR / RFU, CPM / Fold change vs veh, CPM / RFU, DNAJB6 / Fold change vs veh, DNAJB6 / RFU, CACNA2D3 / Fold change vs veh, CACNA2D3 / RFU, DTX4 / Fold change vs veh, DTX4 / RFU, TFCP2 / Fold change vs veh, TFCP2 / RFU, GMCL1 /// GMCL1P1 / Fold change vs veh, GMCL1 /// GMCL1P1 / RFU, AEBP2 / Fold change vs veh, AEBP2 / RFU, SNHG1 /// SNORD22 /// SNORD25 /// SNORD26 /// SNORD27 /// SNORD28 /// SNORD29 /// SNORD31 / Fold change vs veh, SNHG1 /// SNORD22 /// SNORD25 /// SNORD26 /// SNORD27 /// SNORD28 /// SNORD29 /// SNORD31 / Fold change (Aza/veh), C12orf56 (ProbeSet 11735607_a_at) / Fold change (ACY-1035/veh), C12orf56 (ProbeSet 11735607_a_at) / Fold change (Aza/veh), FGFR1OP (ProbeSet 11751329_s_at) / Fold change (ACY-1035/veh), FGFR1OP (ProbeSet 11751329_s_at) / Fold change (Aza/veh), VPS36 (ProbeSet 11739960_a_at) / Fold change (ACY-1035/veh), VPS36 (ProbeSet 11739960_a_at) / RFU SYPL1 (11715823_x_at) / Fold change /veh SYPL1 (11715823_x_at) / RFU IGFBP7 (11715501_s_at) / Fold change /veh IGFBP7 (11715501_s_at) / RFU REEP3 (11722064_at) / Fold change /veh REEP3 (11722064_at) / RFU IGLL1 (11728026_x_at) / Fold change /veh IGLL1 (11728026_x_at): dose or concentration left out as unconfirmed
Settings: ProbeSet 11722022_s_at; LIST D

Nc1ccc(-c2cccs2)cc1NC(=O)c1ccc2c(c1)cc(C1CC1)n2CCN1CCOCC1 [ACY-1035]
Fold change vs veh, CDK5R1: 0.91
